SMILES strings stand for the structures.

Test [1] has as its system Arabidopsis thaliana. Briefly: High-temperature stress resistance in pot culture (fresh weight of aboveground part), Example 2. The conditions noted are these: 0.5 mM in tap water, 37° C. for 5 days. In kind it is in vivo, Arabidopsis thaliana (Col-0). Here is the method: (§1) The materials as used in Example 1 were used.
Jiffy-7 (42 mm diameter, Sakata Seed Corporation) was used as culture soil for pot culture. On Jiffy-7 prepared on the Disposable Tray DT-3 (AS ONE CORPORATION), a grain of Arabidopsis thaliana seeds was seeded and the plant was allowed to grow in an artificial climate chamber (Nippon Medical & Chemical Instruments Co., Ltd.) maintained at a temperature of 22° C. for a daily cycle of 16 hours light and 8 hours darkness.
On the third week after seeding, tap water (200 ml) containing 0.5 mM N-acetylglutamic acid was poured on the Disposable Tray. On the fourth week after seeding, the tray was transferred to an artificial climate chamber maintained at a temperature of 37° C. and subjected to the high-temperature treatment. When the tray was dried during the high-temperature treatment, tap water containing 0.5 mM N-acetylglutamic acid was added. The tray was removed from the artificial climate chamber 5 days after the initiation of the high-temperature treatment, and the weight of the aboveground part was measured.

The subject of the next test is rice. As to the kind of experiment: High-temperature stress resistance in rice (fresh weight of aboveground part), Example 3. It counts as in vivo, rice (variety: Nipponbare). Conditions: 0.5 mM in medium, 24 h before 44° C. for 3 hours, then 22° C. 3 days. Here is the method:
A wild-type rice strain (the variety: Nipponbare) was used as an experimental material. Seeds were purchased from Nouken (https://nouken-seed.shop-pro.jp/).
A liquid medium consisting of a ½ Murashige and Skoog Plant Salt Mixture (Nacalai) was used as a growth medium.
With the use of a 50-ml Falcon tube, rice seeds were sterilized for 30 minutes with the use of a Kitchen Haiter® liquid (Kao Corporation) diluted to one-half concentration with distilled water for 30 minutes and washed 5 times with sterile distilled water. The tube was laid down, sterile distilled water was introduced thereinto in an amount that would sufficiently soak the washed seeds, and culture was performed in an incubator for 3 days to germinate the seeds. The incubator was maintained at a temperature of 30° C. for a daily cycle of 16 hours light and 8 hours darkness.
The growth medium was dispensed at 3 ml/well on a 12-well microplate (IWAKI) 3 days after the initiation of incubation, 3 grains of the germinated seeds were inoculated in each well, and the resultants were handled as experimental materials. […]
High-temperature treatment was performed with the use of an incubator. […] Thereafter, the plate was incubated in an incubator maintained at 22° C. for 3 days, plants were collected, and the fresh weight of the aboveground part excluding seeds and roots was quantified.

A further test relates to HSFA2. As to the kind of experiment: HSFA2 gene expression by real-time PCR, Example 5. In kind it is in vivo. The conditions noted are these: Arabidopsis thaliana; 0.1 mM in medium, 2 hours after application, 22° C.; read-out: HSFA2 expression level, increase vs group not subjected to the treatment. As for the experimental part:
as §1
The method as employed in Example 1 was employed.
N-acetylglutamic acid was applied to Arabidopsis thaliana 7 days after inoculation to the final concentration of 0.1 mM in the medium, followed by incubation for 2 hours or 6 hours. The incubator was maintained at a temperature of 22° C. for a daily cycle of 16 hours light and 8 hours darkness. After incubation, the samples were frozen with liquid nitrogen, and RNA was extracted using the RNeasy Plant Mini Kit (Thermo Fischer Scientific).
cDNA that would be necessary as a real-time PCR template was synthesized from the RNA obtained. 500 ng total RNA was used for each sample, and cDNA was synthesized using the Verso cDNA Synthesis Kit (Thermo Fischer Scientific). The synthesized cDNA was diluted to 5-fold with sterile distilled water and subjected to real-time PCR. For real-time PCR, a reaction solution containing HSFA2 (AGI code: AT2G26150) and HSP17.6C (AGI code: AT1G53540) as the target genes, ACTIN2 (AGI code: AT3G18780) as the reference gene, and TB Green Ex Taq II (TaKaRa) was prepared. PCR was performed with the use of the LightCycler® 480 System (Roche) with the number of amplification cycles of 50. […]
Thereafter, the relative expression level of the target genes upon N-acetylglutamic acid treatment were calculated by the ΔΔCt method using the Cp values obtained by real-time PCR.
(In general: Real-time PCR tracks product formation cycle by cycle.)

The test system of test [2] is Arabidopsis thaliana. As to the kind of experiment: Oxidation stress resistance against methyl viologen (leaf chlorosis, chlorophyll content), Example 8. In kind it is in vivo, Arabidopsis thaliana (Col-0). The conditions noted are these: with 5 μM methyl viologen, 2 days. Here is the method: A wild-type Arabidopsis thaliana strain (accession: Col-0) was used as an experimental material. Seeds were purchased from Inplanta Innovations Inc.
A Murashige and Skoog Plant Salt Mixture 2.2 g (Nacalai tesque) and sucrose 10 g (FUJIFILM Wako) were dissolved in 1 l of pure water, a pH was adjusted to 5.8, and the resultant was sterilized in an autoclave (121° C., 20 minutes).
Arabidopsis thaliana seeds were sterilized by incubation with the use of a Kitchen Haiter® (Kao Corporation) diluted to 2-fold with pure water for 3 minutes. After the seeds were washed with sterile water 3 times, the seeds soaked in sterile water were incubated at 4° C. in the dark for 1 day in order to germinate the seeds at the same time. […]
Leaf chlorosis is observed in plants upon oxidation stress exposure. Thus, an extent of chlorosis was evaluated by measuring the content of the green pigment chlorophyll in leaves. The chlorophyll content was quantified in accordance with the method of Yamaguchi et al. (Nature Commun., Jun. 9, 2021; 12 [1]: 3480). […] The absorbance of the extract was measured at 647 nm and 664 nm, respectively, to calculate the chlorophyll content. The chlorophyll content was calculated in accordance with the formula: 19.43×A647+8.05×A664. The calculated value was divided by the plant weight per well, so as to eliminate the influence of individual sizes.

Turning to `CC(=O)N[C@@H](CCC(=O)O)C(=O)O` [N-acetylglutamic acid], in the test on Arabidopsis thaliana [1], the “fresh weight of the aboveground part, increase relative to the control group” value was 1.3 times. The “decrease in the fresh weight of the aboveground part caused by high-temperature treatment” value in the test with rice is recorded as “suppressed to a significant extent”. The fold induction at 100 µM in the test with HSFA2 was 2.5. Besides, the “chlorophyll content of the MV-treated groups” value in the test on Arabidopsis thaliana [2] (0, 0.01, 0.1, and 0.4 mM, fresh weight basis) is reported as “increased as the N-acetylglutamic acid concentration was increased”. Also, in the test with Arabidopsis thaliana [2] (0.4 mM), the “leaf chlorosis in MV-treated group” value was “substantially no leaf chlorosis was observed”.

For the origin of these results see patent US20260324636A1, “COMPOSITION FOR PROVIDING PLANT WITH STRESS RESISTANCE” (KIRIN HOLDINGS KABUSHIKI KAISHA, priority 2022, published 2026).
